The values that follow are results of earlier work, collected in patent publication US20140127291A1, “EXTENDED RELEASE ACETAMINOPHEN LIQUID PHARMACEUTICAL COMPOSITIONS” (MAYNE PHARMA INTERNATIONAL PTY LTD, priority 2011, published 2014).

For data set [1] the following is noted: in vivo.

On to `CC(=O)Nc1ccc(O)cc1` [acetaminophen], for which the “saturation concentration in water” value is “about 14 mg/ml”. The half life in data set [1] is 1 to 4 h.
